In ChEMBL document CHEMBL1201862, “PubChem BioAssay data set” (2004):
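These data come from cells grown in 96-well plates and exposed to compound for 48 hours at five concentrations. The concentration for 50% growth inhibition is given as GI50.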 Active and inactive are the calls of the source. No stated cut-off is given here; in the data, active = GI50 up to about 1.1 µM and inactive = higher.

How the values were obtained:
Assay in all cases: NCI tumour cell line growth inhibition, 48 h
[1] = test system: NCI-H460
[2] = test system: COLO 205
[3] = test system: SW-620
[4] = test system: SK-MEL-2
[5] = test system: HOP-62
[6] = test system: HCT-15
[7] = test system: OVCAR-3
[8] = test system: A549
[9] = test system: NCI-H23
[10] = test system: HT-29
[11] = test system: HL-60
[12] = test system: MOLT-4
[13] = test system: SNB-75
[14] = test system: A498
[15] = test system: Malme-3M
[16] = test system: IGROV-1
[17] = test system: SK-MEL-28
[18] = test system: SF-539
[19] = test system: CCRF-CEM
[20] = test system: SK-OV-3

| SMILES | GI50 [1] | GI50 [2] | GI50 [3] | GI50 [4] | GI50 [5] | GI50 [6] [µM] | GI50 [7] | GI50 [8] | GI50 [9] | GI50 [10] | GI50 [11] | GI50 [12] | GI50 [13] | GI50 [14] | GI50 [15] | GI50 [16] | GI50 [17] | GI50 [18] | GI50 [19] | GI50 [20] |
| --- | --- | --- | --- | --- | --- | --- | --- | --- | --- | --- | --- | --- | --- | --- | --- | --- | --- | --- | --- | --- |
| COC(=O)/C=C\n1ncc(=O)[nH]c1=O | > 100 µM (inactive) | > 100 µM (inactive) | > 100 µM (inactive) | > 100 µM (inactive) | > 100 µM (inactive) | > 100 | > 100 µM (inactive) | > 100 µM (inactive) | > 100 µM (inactive) | > 100 µM (inactive) | > 100 µM (inactive) | > 100 µM (inactive) | > 100 µM (inactive) | > 100 µM (inactive) | > 100 µM (inactive) | > 100 µM (inactive) | > 100 µM (inactive) | – | – | – |
| Nc1nc(SCCC/C=C/I)nc2c1ncn2C1OC(COP(=O)(O)O)C(O)C1O (configuration not stated) | > 100 µM (inactive) | > 100 µM (inactive) | > 100 µM (inactive) | > 100 µM (inactive) | > 100 µM (inactive) | > 100 | > 100 µM (inactive) | > 100 µM (inactive) | > 100 µM (inactive) | > 100 µM (inactive) | > 100 µM (inactive) | > 100 µM (inactive) | > 100 µM (inactive) | > 100 µM (inactive) | > 100 µM (inactive) | > 100 µM (inactive) | > 100 µM (inactive) | > 100 µM (inactive) | > 100 µM (inactive) | > 100 µM (inactive) |
| Nc1n[nH]c(Nc2ccc(Cl)cc2)c1P(=O)(c1ccccc1)c1ccccc1 | 21.3 µM (inactive) | 49.4 µM (inactive) | 34.3 µM (inactive) | 19.9 µM (inactive) | 20.2 µM (inactive) | 28.6 | 18.1 µM (inactive) | 23.9 µM (inactive) | 30.4 µM (inactive) | 24 µM (inactive) | 25.8 µM (inactive) | 27.2 µM (inactive) | 21.6 µM (inactive) | 37.8 µM (inactive) | 21.5 µM (inactive) | 19.1 µM (inactive) | 25.7 µM (inactive) | 21.8 µM (inactive) | 28.6 µM (inactive) | 30.8 µM (inactive) |
| C=C(C)C1Cc2c(c3ccccc3n(C)c2=O)O1 (configuration not stated) | > 100 µM (inactive) | > 100 µM (inactive) | > 100 µM (inactive) | > 100 µM (inactive) | < 0.01 µM (active) | > 100 | > 100 µM (inactive) | – | > 100 µM (inactive) | > 100 µM (inactive) | > 100 µM (inactive) | > 100 µM (inactive) | > 100 µM (inactive) | > 100 µM (inactive) | > 100 µM (inactive) | > 100 µM (inactive) | > 100 µM (inactive) | > 100 µM (inactive) | > 100 µM (inactive) | > 100 µM (inactive) |
| CCCCCOc1ccc(/C=N\c2ccc(CCc3ccc(/N=C/c4ccc(OCCCCC)cc4)cc3)cc2)cc1 | > 100 µM (inactive) | > 100 µM (inactive) | > 100 µM (inactive) | > 100 µM (inactive) | > 100 µM (inactive) | > 100 | > 100 µM (inactive) | > 100 µM (inactive) | > 100 µM (inactive) | > 100 µM (inactive) | > 100 µM (inactive) | > 100 µM (inactive) | > 100 µM (inactive) | > 100 µM (inactive) | > 100 µM (inactive) | > 100 µM (inactive) | > 100 µM (inactive) | > 100 µM (inactive) | > 100 µM (inactive) | > 100 µM (inactive) |
| O=C(Nc1ccccc1)N1CCN(C(=O)Nc2ccccc2)C1=S | 65 µM (inactive) | > 100 µM (inactive) | > 100 µM (inactive) | > 100 µM (inactive) | 25.2 µM (inactive) | 88.5 | > 100 µM (inactive) | > 100 µM (inactive) | 22.3 µM (inactive) | > 100 µM (inactive) | 29.3 µM (inactive) | > 100 µM (inactive) | 17.9 µM (inactive) | 0.0652 µM (active) | > 100 µM (inactive) | 49 µM (inactive) | > 100 µM (inactive) | 18.5 µM (inactive) | 97.7 µM (inactive) | 28.6 µM (inactive) |
| CN(CCO)/N=N/c1[nH]cnc1C(N)=O | > 100 µM (inactive) | > 100 µM (inactive) | 69.3 µM (inactive) | 22.5 µM (inactive) | 74 µM (inactive) | > 100 | > 100 µM (inactive) | > 100 µM (inactive) | > 100 µM (inactive) | > 100 µM (inactive) | 79.3 µM (inactive) | > 100 µM (inactive) | 26.8 µM (inactive) | > 100 µM (inactive) | 52.8 µM (inactive) | > 100 µM (inactive) | > 100 µM (inactive) | > 100 µM (inactive) | 21.5 µM (inactive) | 30.9 µM (inactive) |
| Cn1c(=O)c2nc(NCCO)cnc2n(C)c1=O | 59.7 µM (inactive) | > 100 µM (inactive) | 55.6 µM (inactive) | 26.6 µM (inactive) | 71.1 µM (inactive) | 85.9 | 23.3 µM (inactive) | > 100 µM (inactive) | > 100 µM (inactive) | > 100 µM (inactive) | 27.2 µM (inactive) | > 100 µM (inactive) | 8.73 µM (inactive) | > 100 µM (inactive) | 44.7 µM (inactive) | > 100 µM (inactive) | > 100 µM (inactive) | 31.8 µM (inactive) | > 100 µM (inactive) | > 100 µM (inactive) |
| N#CCCN(CCC#N)c1ccc(/C=C(/NC(=O)Nc2ccccc2Cl)NC(=O)c2cc([N+](=O)[O-])ccc2Cl)cc1 | – | > 100 µM (inactive) | > 100 µM (inactive) | > 100 µM (inactive) | > 100 µM (inactive) | > 100 | > 100 µM (inactive) | > 100 µM (inactive) | – | – | – | 42 µM (inactive) | – | – | > 100 µM (inactive) | > 100 µM (inactive) | > 100 µM (inactive) | > 100 µM (inactive) | 17.3 µM (inactive) | > 100 µM (inactive) |
| c1ccc2c(CCNC3=NCCO3)cccc2c1 | > 10 µM (inactive) | > 10 µM (inactive) | > 10 µM (inactive) | > 10 µM (inactive) | > 10 µM (inactive) | > 10 | > 10 µM (inactive) | > 10 µM (inactive) | > 10 µM (inactive) | > 10 µM (inactive) | > 10 µM (inactive) | > 10 µM (inactive) | > 10 µM (inactive) | > 10 µM (inactive) | > 10 µM (inactive) | > 10 µM (inactive) | > 10 µM (inactive) | > 10 µM (inactive) | > 10 µM (inactive) | > 10 µM (inactive) |
| CN(C)CCNC(=O)c1cccc2c(=O)c3ccccc3oc12 | 28.2 µM (inactive) | 13.1 µM (inactive) | 34.4 µM (inactive) | 35.9 µM (inactive) | 38.5 µM (inactive) | 37.4 | 37.8 µM (inactive) | 39 µM (inactive) | 35.3 µM (inactive) | 25.4 µM (inactive) | 29.2 µM (inactive) | 41.3 µM (inactive) | 32.4 µM (inactive) | 21.1 µM (inactive) | 25 µM (inactive) | 40.6 µM (inactive) | 33.7 µM (inactive) | 53.3 µM (inactive) | 35.4 µM (inactive) | 25.1 µM (inactive) |
| CCOC(=O)COc1ccc(OC)c2c1C(=O)CCC2 | > 100 µM (inactive) | > 100 µM (inactive) | > 100 µM (inactive) | – | – | > 100 | > 100 µM (inactive) | > 100 µM (inactive) | > 100 µM (inactive) | > 100 µM (inactive) | > 100 µM (inactive) | > 100 µM (inactive) | > 100 µM (inactive) | > 100 µM (inactive) | – | > 100 µM (inactive) | > 100 µM (inactive) | > 100 µM (inactive) | > 100 µM (inactive) | > 100 µM (inactive) |
| COc1cc(C2c3cc4c(cc3[C@@H](Nc3ccccc3)C3COC(=O)[C@H]23)OCO4)cc(OC)c1O (some centres not stated) | < 0.01 µM (active) | 1.92 µM (inactive) | 0.792 µM (active) | 2.79 µM (inactive) | 0.155 µM (active) | 0.417 | 2.48 µM (inactive) | 0.0156 µM (active) | 0.238 µM (active) | 1.23 µM (inactive) | 0.14 µM (active) | < 0.01 µM (active) | 0.875 µM (active) | 0.221 µM (active) | 1.41 µM (inactive) | 2.21 µM (inactive) | 2.72 µM (inactive) | 0.322 µM (active) | 0.0279 µM (active) | 0.845 µM (active) |
